According to PubChem BioAssay (NCI):
Several values for one entry are separate records, joined by “and”; a condition that tells them apart may be missing. Identical values can stand only once.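 These data come from cells grown in 96-well plates and exposed to compound for 48 hours at five concentrations. The concentration for 50% growth inhibition is given as GI50. TGI: total growth inhibition.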

What follows are compounds tested on COLO 205 colon (assay: NCI-60 cell line screen, 48 h).
Work on `N#[N+]c1ccc(Nc2ccccc2)cc1` yielded a GI50 of over 50 µg/mL and a TGI of over 50 µg/mL.
`COC(=O)c1c(O)ccc2c1c1cc3ccccc3c(O)c1n2CCc1ccc(OC)c(OC)c1` was tested, and the TGI was 30.4 µM.
For `Nc1ccccc1C(=O)N=Nc1c(O)[nH]c2ccccc12`, the TGI was over 100 µM.
Work on `COc1ccc2nc3cc(Cl)ccc3c(NCCCN3CCN(CCCNc4ccc5nnn6c7ccccc7c(=O)c4c56)CC3)c2c1` yielded a TGI of over 25 µM.
For `Cn1c(=O)c2c(nc(N/N=C/c3ccccc3C(=O)O)n2C)n(C)c1=O`, the TGI was over 100 µM.

The compounds below were run on K-562 leukemia (assay: NCI-60 cell line screen, 48 h).
With `CC(=O)OCC1OC(n2c3c(cc(C#N)c2=S)CCCC3)C(OC(C)=O)C(OC(C)=O)C1OC(C)=O` (stereo unspecified) the GI50 was 24.1 µM and > 100 µM and the TGI was 68 µM and > 100 µM.
Work on `N#[N+]c1ccc(Nc2ccccc2)cc1` yielded a GI50 of over 50 µg/mL and a TGI of over 50 µg/mL.
`COC(=O)c1c(O)ccc2c1c1cc3ccccc3c(O)c1n2CCc1ccc(OC)c(OC)c1` gave a TGI of over 100 µM.
With `Nc1ccccc1C(=O)N=Nc1c(O)[nH]c2ccccc12` the TGI was over 100 µM.
In the case of `COc1ccc2nc3cc(Cl)ccc3c(NCCCN3CCN(CCCNc4ccc5nnn6c7ccccc7c(=O)c4c56)CC3)c2c1`, the TGI is reported as over 25 µM.
`Cn1c(=O)c2c(nc(N/N=C/c3ccccc3C(=O)O)n2C)n(C)c1=O` showed a TGI of over 100 µM.

These compounds were tested on HCT-116 colon (assay: NCI-60 cell line screen, 48 h).
For `CC(=O)OCC1OC(n2c3c(cc(C#N)c2=S)CCCC3)C(OC(C)=O)C(OC(C)=O)C1OC(C)=O` (stereo unspecified), the GI50 was over 93.3 µM and the TGI was over 100 µM.
Work on `N#[N+]c1ccc(Nc2ccccc2)cc1` yielded a GI50 of over 50 µg/mL and a TGI of over 50 µg/mL.
`COC(=O)c1c(O)ccc2c1c1cc3ccccc3c(O)c1n2CCc1ccc(OC)c(OC)c1` gave a TGI of over 100 µM.
In the case of `Nc1ccccc1C(=O)N=Nc1c(O)[nH]c2ccccc12`, the TGI is reported as over 100 µM.
`COc1ccc2nc3cc(Cl)ccc3c(NCCCN3CCN(CCCNc4ccc5nnn6c7ccccc7c(=O)c4c56)CC3)c2c1` gave a TGI of over 20.2 µM.
`Cn1c(=O)c2c(nc(N/N=C/c3ccccc3C(=O)O)n2C)n(C)c1=O` was tested, and the TGI was over 100 µM.

Each compound was assayed on MDA-N (assay: NCI-60 cell line screen, 48 h).
With `CC(=O)OCC1OC(n2c3c(cc(C#N)c2=S)CCCC3)C(OC(C)=O)C(OC(C)=O)C1OC(C)=O` (stereo unspecified) the TGI was over 100 µM.
In the case of `N#[N+]c1ccc(Nc2ccccc2)cc1`, the GI50 is reported as over 50 µg/mL and the TGI is reported as over 50 µg/mL.
`COC(=O)c1c(O)ccc2c1c1cc3ccccc3c(O)c1n2CCc1ccc(OC)c(OC)c1` was tested, and the TGI was over 100 µM.
In the case of `Nc1ccccc1C(=O)N=Nc1c(O)[nH]c2ccccc12`, the TGI is reported as over 100 µM.
Work on `COc1ccc2nc3cc(Cl)ccc3c(NCCCN3CCN(CCCNc4ccc5nnn6c7ccccc7c(=O)c4c56)CC3)c2c1` yielded a TGI of over 25 µM.
`Cn1c(=O)c2c(nc(N/N=C/c3ccccc3C(=O)O)n2C)n(C)c1=O` was tested, and the TGI was over 100 µM.

The compounds below were run on SN12C renal (assay: NCI-60 cell line screen, 48 h).
For `CC(=O)OCC1OC(n2c3c(cc(C#N)c2=S)CCCC3)C(OC(C)=O)C(OC(C)=O)C1OC(C)=O` (stereo unspecified), the TGI was over 100 µM.
Compound `N#[N+]c1ccc(Nc2ccccc2)cc1` has a GI50 of over 50 µg/mL and a TGI of over 50 µg/mL.
For `COC(=O)c1c(O)ccc2c1c1cc3ccccc3c(O)c1n2CCc1ccc(OC)c(OC)c1`, the TGI was over 100 µM.
`Nc1ccccc1C(=O)N=Nc1c(O)[nH]c2ccccc12` gave a TGI of over 100 µM.
`COc1ccc2nc3cc(Cl)ccc3c(NCCCN3CCN(CCCNc4ccc5nnn6c7ccccc7c(=O)c4c56)CC3)c2c1` showed a TGI of over 25 µM.
Work on `Cn1c(=O)c2c(nc(N/N=C/c3ccccc3C(=O)O)n2C)n(C)c1=O` yielded a TGI of over 100 µM.

Each compound was assayed on CAKI-1 renal (assay: NCI-60 cell line screen, 48 h).
In the case of `CC(=O)OCC1OC(n2c3c(cc(C#N)c2=S)CCCC3)C(OC(C)=O)C(OC(C)=O)C1OC(C)=O` (stereo unspecified), the GI50 is reported as > 100 µM and 42.1 µM and the TGI is reported as over 100 µM.
`N#[N+]c1ccc(Nc2ccccc2)cc1` gave a GI50 of 1.11 µg/mL and a TGI of 19.3 µg/mL.
`COC(=O)c1c(O)ccc2c1c1cc3ccccc3c(O)c1n2CCc1ccc(OC)c(OC)c1` was tested, and the TGI was over 100 µM.
Compound `Nc1ccccc1C(=O)N=Nc1c(O)[nH]c2ccccc12` has a TGI of over 100 µM.
Work on `COc1ccc2nc3cc(Cl)ccc3c(NCCCN3CCN(CCCNc4ccc5nnn6c7ccccc7c(=O)c4c56)CC3)c2c1` yielded a TGI of over 15.8 µM.
In the case of `Cn1c(=O)c2c(nc(N/N=C/c3ccccc3C(=O)O)n2C)n(C)c1=O`, the TGI is reported as over 100 µM.

The compounds below were run on OVCAR-8 ovarian (assay: NCI-60 cell line screen, 48 h).
Compound `CC(=O)OCC1OC(n2c3c(cc(C#N)c2=S)CCCC3)C(OC(C)=O)C(OC(C)=O)C1OC(C)=O` (stereo unspecified) has a TGI of over 100 µM.
`N#[N+]c1ccc(Nc2ccccc2)cc1` showed a GI50 of over 50 µg/mL and a TGI of over 50 µg/mL.
`COC(=O)c1c(O)ccc2c1c1cc3ccccc3c(O)c1n2CCc1ccc(OC)c(OC)c1` showed a TGI of over 100 µM.
Work on `Nc1ccccc1C(=O)N=Nc1c(O)[nH]c2ccccc12` yielded a TGI of over 100 µM.
Compound `COc1ccc2nc3cc(Cl)ccc3c(NCCCN3CCN(CCCNc4ccc5nnn6c7ccccc7c(=O)c4c56)CC3)c2c1` has a TGI of over 25 µM.
`Cn1c(=O)c2c(nc(N/N=C/c3ccccc3C(=O)O)n2C)n(C)c1=O` was tested, and the TGI was over 100 µM.

These compounds were tested on HCC-2998 colon (assay: NCI-60 cell line screen, 48 h).
For `CC(=O)OCC1OC(n2c3c(cc(C#N)c2=S)CCCC3)C(OC(C)=O)C(OC(C)=O)C1OC(C)=O` (stereo unspecified), the GI50 was 41.3 µM and > 100 µM and the TGI was over 100 µM.
Compound `N#[N+]c1ccc(Nc2ccccc2)cc1` has a GI50 of over 50 µg/mL and a TGI of over 50 µg/mL.
Work on `COC(=O)c1c(O)ccc2c1c1cc3ccccc3c(O)c1n2CCc1ccc(OC)c(OC)c1` yielded a TGI of 86.8 µM.
`Nc1ccccc1C(=O)N=Nc1c(O)[nH]c2ccccc12` gave a TGI of over 100 µM.
Work on `COc1ccc2nc3cc(Cl)ccc3c(NCCCN3CCN(CCCNc4ccc5nnn6c7ccccc7c(=O)c4c56)CC3)c2c1` yielded a TGI of over 9.86 µM.

Each compound was assayed on HCT-15 colon (assay: NCI-60 cell line screen, 48 h).
`CC(=O)OCC1OC(n2c3c(cc(C#N)c2=S)CCCC3)C(OC(C)=O)C(OC(C)=O)C1OC(C)=O` (stereo unspecified) gave a TGI of over 100 µM.
Compound `N#[N+]c1ccc(Nc2ccccc2)cc1` has a GI50 of over 50 µg/mL and a TGI of over 50 µg/mL.
Compound `COC(=O)c1c(O)ccc2c1c1cc3ccccc3c(O)c1n2CCc1ccc(OC)c(OC)c1` has a TGI of over 100 µM.
Work on `Nc1ccccc1C(=O)N=Nc1c(O)[nH]c2ccccc12` yielded a TGI of over 100 µM.
`COc1ccc2nc3cc(Cl)ccc3c(NCCCN3CCN(CCCNc4ccc5nnn6c7ccccc7c(=O)c4c56)CC3)c2c1` gave a TGI of over 25 µM.
`Cn1c(=O)c2c(nc(N/N=C/c3ccccc3C(=O)O)n2C)n(C)c1=O` gave a TGI of over 100 µM.

The compounds below were run on MALME-3M melanoma (assay: NCI-60 cell line screen, 48 h).
In the case of `CC(=O)OCC1OC(n2c3c(cc(C#N)c2=S)CCCC3)C(OC(C)=O)C(OC(C)=O)C1OC(C)=O` (stereo unspecified), the TGI is reported as over 100 µM.
`N#[N+]c1ccc(Nc2ccccc2)cc1` showed a GI50 of over 50 µg/mL and a TGI of over 50 µg/mL.
`COC(=O)c1c(O)ccc2c1c1cc3ccccc3c(O)c1n2CCc1ccc(OC)c(OC)c1` showed a TGI of over 100 µM.
With `Nc1ccccc1C(=O)N=Nc1c(O)[nH]c2ccccc12` the TGI was over 100 µM.
`Cn1c(=O)c2c(nc(N/N=C/c3ccccc3C(=O)O)n2C)n(C)c1=O` showed a TGI of over 100 µM.

These compounds were tested on T-47D breast (assay: NCI-60 cell line screen, 48 h).
`CC(=O)OCC1OC(n2c3c(cc(C#N)c2=S)CCCC3)C(OC(C)=O)C(OC(C)=O)C1OC(C)=O` (stereo unspecified) was tested, and the GI50 was over 100 µM and the TGI was over 100 µM.
With `N#[N+]c1ccc(Nc2ccccc2)cc1` the GI50 was over 50 µg/mL and the TGI was over 50 µg/mL.
With `COC(=O)c1c(O)ccc2c1c1cc3ccccc3c(O)c1n2CCc1ccc(OC)c(OC)c1` the TGI was over 100 µM.
Work on `Nc1ccccc1C(=O)N=Nc1c(O)[nH]c2ccccc12` yielded a TGI of over 100 µM.
In the case of `COc1ccc2nc3cc(Cl)ccc3c(NCCCN3CCN(CCCNc4ccc5nnn6c7ccccc7c(=O)c4c56)CC3)c2c1`, the TGI is reported as over 25 µM.
Compound `Cn1c(=O)c2c(nc(N/N=C/c3ccccc3C(=O)O)n2C)n(C)c1=O` has a TGI of over 100 µM.

These compounds were tested on UO-31 renal (assay: NCI-60 cell line screen, 48 h).
`CC(=O)OCC1OC(n2c3c(cc(C#N)c2=S)CCCC3)C(OC(C)=O)C(OC(C)=O)C1OC(C)=O` (stereo unspecified) showed a TGI of over 100 µM.
With `N#[N+]c1ccc(Nc2ccccc2)cc1` the GI50 was over 50 µg/mL and the TGI was over 50 µg/mL.
With `COC(=O)c1c(O)ccc2c1c1cc3ccccc3c(O)c1n2CCc1ccc(OC)c(OC)c1` the TGI was over 100 µM.
`Nc1ccccc1C(=O)N=Nc1c(O)[nH]c2ccccc12` was tested, and the TGI was over 100 µM.
Work on `COc1ccc2nc3cc(Cl)ccc3c(NCCCN3CCN(CCCNc4ccc5nnn6c7ccccc7c(=O)c4c56)CC3)c2c1` yielded a TGI of over 25 µM.
In the case of `Cn1c(=O)c2c(nc(N/N=C/c3ccccc3C(=O)O)n2C)n(C)c1=O`, the TGI is reported as over 100 µM.

The compounds below were run on SF-295 CNS (assay: NCI-60 cell line screen, 48 h).
For `CC(=O)OCC1OC(n2c3c(cc(C#N)c2=S)CCCC3)C(OC(C)=O)C(OC(C)=O)C1OC(C)=O` (stereo unspecified), the GI50 was > 100 µM and 19.7 µM and the TGI was > 100 µM and 48.4 µM.
`N#[N+]c1ccc(Nc2ccccc2)cc1` showed a GI50 of over 50 µg/mL and a TGI of over 50 µg/mL.
`COC(=O)c1c(O)ccc2c1c1cc3ccccc3c(O)c1n2CCc1ccc(OC)c(OC)c1` showed a TGI of over 100 µM.
`Nc1ccccc1C(=O)N=Nc1c(O)[nH]c2ccccc12` showed a TGI of over 100 µM.
Work on `COc1ccc2nc3cc(Cl)ccc3c(NCCCN3CCN(CCCNc4ccc5nnn6c7ccccc7c(=O)c4c56)CC3)c2c1` yielded a TGI of over 25 µM.
For `Cn1c(=O)c2c(nc(N/N=C/c3ccccc3C(=O)O)n2C)n(C)c1=O`, the TGI was over 100 µM.

The compounds below were run on KM12 colon (assay: NCI-60 cell line screen, 48 h).
For `CC(=O)OCC1OC(n2c3c(cc(C#N)c2=S)CCCC3)C(OC(C)=O)C(OC(C)=O)C1OC(C)=O` (stereo unspecified), the GI50 was 31.7 µM and > 100 µM and the TGI was over 100 µM.
In the case of `N#[N+]c1ccc(Nc2ccccc2)cc1`, the GI50 is reported as 3.11 µg/mL and the TGI is reported as over 50 µg/mL.
`COC(=O)c1c(O)ccc2c1c1cc3ccccc3c(O)c1n2CCc1ccc(OC)c(OC)c1` showed a TGI of over 100 µM.
With `Nc1ccccc1C(=O)N=Nc1c(O)[nH]c2ccccc12` the TGI was over 100 µM.
`COc1ccc2nc3cc(Cl)ccc3c(NCCCN3CCN(CCCNc4ccc5nnn6c7ccccc7c(=O)c4c56)CC3)c2c1` was tested, and the TGI was over 25 µM.
`Cn1c(=O)c2c(nc(N/N=C/c3ccccc3C(=O)O)n2C)n(C)c1=O` gave a TGI of over 100 µM.

These compounds were tested on IGROV1 ovarian (assay: NCI-60 cell line screen, 48 h).
With `CC(=O)OCC1OC(n2c3c(cc(C#N)c2=S)CCCC3)C(OC(C)=O)C(OC(C)=O)C1OC(C)=O` (stereo unspecified) the TGI was over 100 µM.
`N#[N+]c1ccc(Nc2ccccc2)cc1` was tested, and the GI50 was over 50 µg/mL and the TGI was over 50 µg/mL.
With `COC(=O)c1c(O)ccc2c1c1cc3ccccc3c(O)c1n2CCc1ccc(OC)c(OC)c1` the TGI was over 100 µM.
